According to BigSolDB 2.1:

Nc1ccc(C(=O)[O-])cc1.[K+]
Conditions	solubility (mole fraction)
in DMF, 283.15 K	0.00143
in DMF, 293.15 K	0.00146
in DMF, 303.15 K	0.00153
in DMF, 313.15 K	0.00154
in DMF, 323.15 K	0.00159
in DMF, 333.15 K	0.00161
in ethanol, 283.15 K	0.00224
in ethanol, 293.15 K	0.00232
in ethanol, 303.15 K	0.00238
in ethanol, 313.15 K	0.00244
in ethanol, 323.15 K	0.0025
in ethanol, 333.15 K	0.00252
in ethyl acetate, 283.15 K	0.000198
in ethyl acetate, 293.15 K	0.000205
in ethyl acetate, 303.15 K	0.000211
in ethyl acetate, 313.15 K	0.000216
in ethyl acetate, 323.15 K	0.000219
in ethylene glycol, 283.15 K	0.0973
in ethylene glycol, 293.15 K	0.115
in ethylene glycol, 303.15 K	0.127
in ethylene glycol, 313.15 K	0.145
in ethylene glycol, 323.15 K	0.156
in ethylene glycol, 333.15 K	0.172
in formamide, 283.15 K	0.0794
in formamide, 293.15 K	0.0929
in formamide, 303.15 K	0.104
in formamide, 313.15 K	0.112
in formamide, 323.15 K	0.119
in formamide, 333.15 K	0.125
in isopropanol, 283.15 K	0.000366
in isopropanol, 293.15 K	0.000416
in isopropanol, 303.15 K	0.000486
in isopropanol, 313.15 K	0.000496
in isopropanol, 323.15 K	0.00052
in isopropanol, 333.15 K	0.000556
in n-propanol, 283.15 K	0.000852
in n-propanol, 293.15 K	0.000874
in n-propanol, 303.15 K	0.000884
in n-propanol, 313.15 K	0.000929
in n-propanol, 323.15 K	0.000952
in n-propanol, 333.15 K	0.000981
in water, 278.15 K	0.092
in water, 288.15 K	0.11
in water, 298.15 K	0.125
in water, 308.15 K	0.144
in water, 318.15 K	0.161
in water, 328.15 K	0.177
in water, 338.15 K	0.194
